Measurements published in PMC10817531, “Chlorinated Enyne Fatty Acid Amides from a Marine Cyanobacterium: Discovery of Taveuniamides L-M and Pharmacological Characterization of Taveuniamide F as a GPCR Antagonist with CNR1 Selectivity” (Marine Drugs, 2023).

Key:
[1] = biological target: ADRB2 (Homo sapiens, UniProt P07550); experiment: PathHunter β-arrestin GpcrMAX assay; assay type: cell-based
Protocol: (§1) GpcrMAX panel biosensor assays were used to characterize taveuniamide F (4, 20 µM) (agonist and antagonist mode). The experiments were carried out by DiscoveRx Corporation (Fremont, CA, USA) as described before, using PathHunter β-arrestin enzyme fragment complementation (EFC) technology.

[2] = biological target: AVPR2 (Homo sapiens, UniProt P30518); experiment: PathHunter β-arrestin GpcrMAX assay; assay type: cell-based
Protocol: as §1

[3] = biological target: CALCRL-RAMP1 (Homo sapiens, UniProt O60894+Q16602); experiment: PathHunter β-arrestin GpcrMAX assay; assay type: cell-based
CALCRL-RAMP1, sequence (Q16602 23-461): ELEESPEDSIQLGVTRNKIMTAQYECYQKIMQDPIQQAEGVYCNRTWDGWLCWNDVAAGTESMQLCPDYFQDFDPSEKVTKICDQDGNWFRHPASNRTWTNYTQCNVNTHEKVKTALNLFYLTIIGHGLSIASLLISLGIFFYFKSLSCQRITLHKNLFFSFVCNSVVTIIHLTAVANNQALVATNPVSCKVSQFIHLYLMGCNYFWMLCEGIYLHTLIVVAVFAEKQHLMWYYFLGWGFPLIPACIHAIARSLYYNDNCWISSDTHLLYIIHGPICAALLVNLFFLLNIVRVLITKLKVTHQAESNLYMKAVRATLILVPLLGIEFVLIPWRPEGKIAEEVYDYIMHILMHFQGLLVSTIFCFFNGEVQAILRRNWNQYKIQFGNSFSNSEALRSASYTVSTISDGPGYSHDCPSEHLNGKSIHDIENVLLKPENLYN
CALCRL-RAMP1, sequence (O60894 27-148 partner): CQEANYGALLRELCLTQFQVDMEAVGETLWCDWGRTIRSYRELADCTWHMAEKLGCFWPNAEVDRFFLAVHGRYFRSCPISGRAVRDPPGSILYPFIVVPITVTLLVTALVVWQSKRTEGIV
Protocol: as §1

[4] = biological target: CALCRL-RAMP3 (Homo sapiens, UniProt O60896+Q16602); experiment: PathHunter β-arrestin GpcrMAX assay; assay type: cell-based
CALCRL-RAMP3, sequence (Q16602 23-461): as the sequence (Q16602 23-461) above
CALCRL-RAMP3, sequence (O60896 24-148 partner): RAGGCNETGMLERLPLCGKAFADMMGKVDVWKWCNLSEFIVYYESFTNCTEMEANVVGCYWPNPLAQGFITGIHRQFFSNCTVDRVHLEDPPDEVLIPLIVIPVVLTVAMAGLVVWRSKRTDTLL
Protocol: as §1

[5] = biological target: T1, CCR3 (Homo sapiens, UniProt P51677); experiment: PathHunter β-arrestin GpcrMAX assay; assay type: cell-based
T1 construct: purchased DiscoveRx (Eurofins) gpcrMAX PathHunter β-arrestin panel
T1 sequence (P51677 whole entry): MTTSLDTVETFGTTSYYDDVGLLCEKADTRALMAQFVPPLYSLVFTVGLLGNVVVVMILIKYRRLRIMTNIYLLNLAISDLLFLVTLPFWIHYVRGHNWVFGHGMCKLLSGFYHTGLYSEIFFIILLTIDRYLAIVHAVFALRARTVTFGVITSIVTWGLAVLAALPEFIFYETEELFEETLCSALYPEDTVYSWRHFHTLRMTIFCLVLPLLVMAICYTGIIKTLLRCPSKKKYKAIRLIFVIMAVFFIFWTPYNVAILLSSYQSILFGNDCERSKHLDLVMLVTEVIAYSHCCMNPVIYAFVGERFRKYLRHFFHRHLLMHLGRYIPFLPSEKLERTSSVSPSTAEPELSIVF
Protocol: as §1

[6] = biological target: T2, CHRM1 (Homo sapiens, UniProt P11229); experiment: PathHunter β-arrestin GpcrMAX assay; assay type: cell-based
T2 construct: purchased DiscoveRx (Eurofins) gpcrMAX PathHunter β-arrestin panel
Protocol: as §1

[7] = biological target: T3, CHRM5 (Homo sapiens, UniProt P08912); experiment: PathHunter β-arrestin GpcrMAX assay; assay type: cell-based
T3 construct: purchased DiscoveRx (Eurofins) gpcrMAX PathHunter β-arrestin panel
T3 sequence (P08912 whole entry): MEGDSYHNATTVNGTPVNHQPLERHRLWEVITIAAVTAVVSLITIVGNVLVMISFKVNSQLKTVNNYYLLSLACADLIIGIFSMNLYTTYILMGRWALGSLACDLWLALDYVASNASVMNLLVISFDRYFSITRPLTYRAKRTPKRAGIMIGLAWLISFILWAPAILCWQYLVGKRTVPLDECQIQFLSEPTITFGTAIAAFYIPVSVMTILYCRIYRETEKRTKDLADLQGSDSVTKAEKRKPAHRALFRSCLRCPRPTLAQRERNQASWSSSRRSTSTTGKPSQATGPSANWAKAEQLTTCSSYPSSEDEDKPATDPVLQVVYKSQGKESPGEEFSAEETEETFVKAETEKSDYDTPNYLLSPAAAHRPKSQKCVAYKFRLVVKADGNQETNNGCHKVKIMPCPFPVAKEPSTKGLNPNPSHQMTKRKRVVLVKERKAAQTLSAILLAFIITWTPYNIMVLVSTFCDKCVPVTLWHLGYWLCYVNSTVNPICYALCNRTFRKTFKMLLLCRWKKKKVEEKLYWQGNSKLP
Protocol: as §1

[8] = biological target: T4, CMKLR1 (Homo sapiens, UniProt Q99788); experiment: PathHunter β-arrestin GpcrMAX assay; assay type: cell-based
T4 construct: purchased DiscoveRx (Eurofins) gpcrMAX PathHunter β-arrestin panel
T4 sequence (Q99788 whole entry): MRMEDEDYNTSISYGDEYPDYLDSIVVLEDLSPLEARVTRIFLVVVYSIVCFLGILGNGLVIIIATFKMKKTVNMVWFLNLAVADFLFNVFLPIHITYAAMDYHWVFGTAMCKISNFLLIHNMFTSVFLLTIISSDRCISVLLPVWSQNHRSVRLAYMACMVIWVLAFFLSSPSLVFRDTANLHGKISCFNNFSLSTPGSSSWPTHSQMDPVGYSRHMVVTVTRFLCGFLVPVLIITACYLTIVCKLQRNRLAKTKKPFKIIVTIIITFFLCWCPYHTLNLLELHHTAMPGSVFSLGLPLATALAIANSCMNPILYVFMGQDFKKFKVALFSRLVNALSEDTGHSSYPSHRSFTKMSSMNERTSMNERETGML
Protocol: as §1

[9] = biological target: T5, CXCR1 (Homo sapiens, UniProt P25024); experiment: PathHunter β-arrestin GpcrMAX assay; assay type: cell-based
T5 construct: purchased DiscoveRx (Eurofins) gpcrMAX PathHunter β-arrestin panel
Protocol: as §1

[10] = biological target: T6, CXCR3 (Homo sapiens, UniProt P49682); experiment: PathHunter β-arrestin GpcrMAX assay; assay type: cell-based
T6 construct: purchased DiscoveRx (Eurofins) gpcrMAX PathHunter β-arrestin panel
T6 sequence (P49682 whole entry): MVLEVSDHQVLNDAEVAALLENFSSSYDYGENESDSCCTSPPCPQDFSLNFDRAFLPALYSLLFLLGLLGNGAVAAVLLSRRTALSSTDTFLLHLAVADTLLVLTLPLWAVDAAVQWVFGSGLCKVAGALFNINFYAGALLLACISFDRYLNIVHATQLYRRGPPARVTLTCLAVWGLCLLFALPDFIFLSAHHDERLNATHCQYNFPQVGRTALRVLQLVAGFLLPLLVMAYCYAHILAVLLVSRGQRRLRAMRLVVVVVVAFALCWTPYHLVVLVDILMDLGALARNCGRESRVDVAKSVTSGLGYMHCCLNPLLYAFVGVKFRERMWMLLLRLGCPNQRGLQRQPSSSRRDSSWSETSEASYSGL
Protocol: as §1

[11] = biological target: T7, CXCR4 (Homo sapiens, UniProt P61073); experiment: PathHunter β-arrestin GpcrMAX assay; assay type: cell-based
T7 construct: purchased DiscoveRx (Eurofins) gpcrMAX PathHunter β-arrestin panel
T7 sequence (P61073 whole entry): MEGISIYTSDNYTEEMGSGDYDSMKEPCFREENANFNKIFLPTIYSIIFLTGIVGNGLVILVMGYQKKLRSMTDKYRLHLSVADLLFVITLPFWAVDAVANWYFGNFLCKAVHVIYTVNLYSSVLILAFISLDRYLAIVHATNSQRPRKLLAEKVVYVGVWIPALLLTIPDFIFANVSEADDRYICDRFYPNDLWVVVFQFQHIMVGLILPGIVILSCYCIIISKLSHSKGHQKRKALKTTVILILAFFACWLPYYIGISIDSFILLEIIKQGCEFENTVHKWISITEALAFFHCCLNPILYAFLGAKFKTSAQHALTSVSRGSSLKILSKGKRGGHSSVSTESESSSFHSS
Protocol: as §1

[12] = biological target: T8, F2R (Homo sapiens, UniProt P25116); experiment: PathHunter β-arrestin GpcrMAX assay; assay type: cell-based
T8 construct: purchased DiscoveRx (Eurofins) gpcrMAX PathHunter β-arrestin panel
Protocol: as §1

[13] = biological target: T9, GLP1R (Homo sapiens, UniProt P43220); experiment: PathHunter β-arrestin GpcrMAX assay; assay type: cell-based
T9 construct: purchased DiscoveRx (Eurofins) gpcrMAX PathHunter β-arrestin panel
Protocol: as §1

[14] = biological target: T10, GPR109A (Homo sapiens, UniProt Q8TDS4); experiment: PathHunter β-arrestin GpcrMAX assay; assay type: cell-based
T10 construct: purchased DiscoveRx (Eurofins) gpcrMAX PathHunter β-arrestin panel
Protocol: as §1

[15] = biological target: T11, GPR109B (Homo sapiens, UniProt P49019); experiment: PathHunter β-arrestin GpcrMAX assay; assay type: cell-based
T11 construct: purchased DiscoveRx (Eurofins) gpcrMAX PathHunter β-arrestin panel
Protocol: as §1

[16] = biological target: T12, GRPR (Homo sapiens, UniProt P30550); experiment: PathHunter β-arrestin GpcrMAX assay; assay type: cell-based
T12 construct: purchased DiscoveRx (Eurofins) gpcrMAX PathHunter β-arrestin panel
T12 sequence (P30550 whole entry): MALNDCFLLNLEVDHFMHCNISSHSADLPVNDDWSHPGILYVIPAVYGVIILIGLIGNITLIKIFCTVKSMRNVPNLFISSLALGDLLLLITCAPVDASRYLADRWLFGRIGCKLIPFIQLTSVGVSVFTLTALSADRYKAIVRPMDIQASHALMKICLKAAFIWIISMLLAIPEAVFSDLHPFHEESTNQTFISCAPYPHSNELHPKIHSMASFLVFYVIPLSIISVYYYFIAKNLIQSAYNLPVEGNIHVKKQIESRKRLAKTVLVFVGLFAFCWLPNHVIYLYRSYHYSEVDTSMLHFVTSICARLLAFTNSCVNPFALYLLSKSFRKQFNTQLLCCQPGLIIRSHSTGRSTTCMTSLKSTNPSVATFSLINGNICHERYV
Protocol: as §1

[17] = biological target: T13, HTR1F (Homo sapiens, UniProt P30939); experiment: PathHunter β-arrestin GpcrMAX assay; assay type: cell-based
T13 construct: purchased DiscoveRx (Eurofins) gpcrMAX PathHunter β-arrestin panel
Protocol: as §1

[18] = biological target: T14, MC4R (Homo sapiens, UniProt P32245); experiment: PathHunter β-arrestin GpcrMAX assay; assay type: cell-based
T14 construct: purchased DiscoveRx (Eurofins) gpcrMAX PathHunter β-arrestin panel
Protocol: as §1

[19] = biological target: T15, OPRK1 (Homo sapiens, UniProt P41145); experiment: PathHunter β-arrestin GpcrMAX assay; assay type: cell-based
T15 construct: purchased DiscoveRx (Eurofins) gpcrMAX PathHunter β-arrestin panel
T15 sequence (P41145 whole entry): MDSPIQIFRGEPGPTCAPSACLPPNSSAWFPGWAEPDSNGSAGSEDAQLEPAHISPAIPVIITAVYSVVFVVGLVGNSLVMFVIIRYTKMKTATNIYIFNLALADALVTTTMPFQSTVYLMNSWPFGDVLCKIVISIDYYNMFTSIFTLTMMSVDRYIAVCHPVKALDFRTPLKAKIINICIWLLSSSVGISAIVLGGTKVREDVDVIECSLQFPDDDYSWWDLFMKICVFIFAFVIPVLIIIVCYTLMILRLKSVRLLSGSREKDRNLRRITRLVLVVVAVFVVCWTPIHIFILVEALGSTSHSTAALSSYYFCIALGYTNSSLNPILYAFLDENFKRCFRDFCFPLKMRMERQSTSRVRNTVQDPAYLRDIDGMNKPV
Protocol: as §1

[20] = biological target: T16, OXER1 (Homo sapiens, UniProt Q8TDS5); experiment: PathHunter β-arrestin GpcrMAX assay; assay type: cell-based
T16 construct: purchased DiscoveRx (Eurofins) gpcrMAX PathHunter β-arrestin panel
Protocol: as §1

[21] = biological target: T17, P2RY1 (Homo sapiens, UniProt P47900); experiment: PathHunter β-arrestin GpcrMAX assay; assay type: cell-based
T17 construct: purchased DiscoveRx (Eurofins) gpcrMAX PathHunter β-arrestin panel
Protocol: as §1

[22] = biological target: T18, PROKR1 (Homo sapiens, UniProt Q8TCW9); experiment: PathHunter β-arrestin GpcrMAX assay; assay type: cell-based
T18 construct: purchased DiscoveRx (Eurofins) gpcrMAX PathHunter β-arrestin panel
Protocol: as §1

[23] = biological target: T19, PTGER4 (Homo sapiens, UniProt P35408); experiment: PathHunter β-arrestin GpcrMAX assay; assay type: cell-based
T19 construct: purchased DiscoveRx (Eurofins) gpcrMAX PathHunter β-arrestin panel
Protocol: as §1

[24] = biological target: T20, PTGFR (Homo sapiens, UniProt P43088); experiment: PathHunter β-arrestin GpcrMAX assay; assay type: cell-based
T20 construct: purchased DiscoveRx (Eurofins) gpcrMAX PathHunter β-arrestin panel
T20 sequence (P43088 whole entry): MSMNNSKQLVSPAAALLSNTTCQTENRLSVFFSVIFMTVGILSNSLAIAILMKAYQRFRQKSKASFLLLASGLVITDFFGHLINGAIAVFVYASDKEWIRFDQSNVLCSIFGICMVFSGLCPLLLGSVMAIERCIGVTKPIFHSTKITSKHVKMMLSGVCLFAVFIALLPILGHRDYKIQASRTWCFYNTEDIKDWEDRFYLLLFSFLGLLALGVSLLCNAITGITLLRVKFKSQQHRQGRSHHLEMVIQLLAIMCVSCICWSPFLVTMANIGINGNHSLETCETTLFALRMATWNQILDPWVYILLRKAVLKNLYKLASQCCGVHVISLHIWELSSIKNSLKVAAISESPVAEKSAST
Protocol: as §1

[25] = biological target: T21, SSTR5 (Homo sapiens, UniProt P35346); experiment: PathHunter β-arrestin GpcrMAX assay; assay type: cell-based
T21 construct: purchased DiscoveRx (Eurofins) gpcrMAX PathHunter β-arrestin panel
Protocol: as §1

[26] = biological target: T22, VIPR2 (Homo sapiens, UniProt P41587); experiment: PathHunter β-arrestin GpcrMAX assay; assay type: cell-based
T22 construct: purchased DiscoveRx (Eurofins) gpcrMAX PathHunter β-arrestin panel
Protocol: as §1

[27] = biological target: T23, human recombinant cannabinoid CNR1 receptors (Homo sapiens, UniProt P21554); experiment: Competitive radioligand binding assay ([3H]SR141716A); conditions: 2 nM [3H]SR141716A, 60 min, 37 °C, Chem-1 cell membranes
T23 construct: host or cells: rat hematopoietic Chem-1 cells (membrane homogenate)
T23 sequence (P21554 whole entry): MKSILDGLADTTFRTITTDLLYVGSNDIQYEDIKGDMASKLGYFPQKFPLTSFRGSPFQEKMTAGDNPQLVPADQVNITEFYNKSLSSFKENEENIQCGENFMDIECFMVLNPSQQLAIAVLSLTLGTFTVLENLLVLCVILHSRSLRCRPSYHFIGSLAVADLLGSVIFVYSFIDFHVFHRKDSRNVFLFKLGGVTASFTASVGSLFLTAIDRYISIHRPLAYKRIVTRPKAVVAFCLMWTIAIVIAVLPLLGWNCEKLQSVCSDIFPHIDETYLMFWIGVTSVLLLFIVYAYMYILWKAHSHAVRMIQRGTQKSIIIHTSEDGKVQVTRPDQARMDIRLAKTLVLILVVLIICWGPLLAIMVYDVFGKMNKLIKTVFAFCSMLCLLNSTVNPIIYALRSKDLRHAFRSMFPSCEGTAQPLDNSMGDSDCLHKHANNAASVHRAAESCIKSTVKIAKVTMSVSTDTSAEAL
Protocol: (a) Competitive radioligand binding assay of 4 to CNR1. Membrane homogenate of rat hematopoietic Chem-1 cells expressing human recombinant CNR1 receptors is incubated with 2 nM [3H]SR141716A for 60 min at 37 °C. […] (b) Effect of 4 in CNR1 cAMP functional assay in agonist and antagonist mode. Experiments were carried out as technical duplicates. Data are presented as mean ± SD (n = 2).
The assay was carried out by Eurofins Panlabs Discovery Services (New Taipei City, Taiwan). Human recombinant cannabinoid CNR1 receptors expressed in rat hematopoietic Chem-1 cells were used in modified HEPES buffer (50 mM HEPES, pH 7.4, 5 mM MgCl2, 1 mM CaCl2, 0.2% BSA). A 5 µg aliquot of membrane homogenate was incubated with 2 nM [^3H]SR141716A for 60 min at 37 °C. […] Membranes were filtered and washed four times and the filters were counted to determine [^3H]SR141716A as specifically bound. Compound 4 was screened at 8 concentrations, where the highest concentration was 50 µM. […] The experiments were carried out as technical duplicates.

[28] = MTT cell viability assay; assay type: cell-based; conditions: human, HEK293 cells; 24 h exposure, majority of tested concentrations (below 100 μM)
Protocol: (§2) HEK293 cells were purchased from ATCC (Manassas, VA, USA). They were cultured and maintained in Dulbecco’s modified Eagle medium (DMEM; Invitrogen, Waltham, MA, USA) supplemented with 10% fetal bovine serum (FBS; HyClone, Logan, UT, USA) and 1% antibiotic-antimycotic (Invitrogen) at 37 °C in a humidified atmosphere with 5% CO2. HEK293 cells were seeded in 96-well plates at densities of 15,000 cells per well in 100 μL, respectively. After 16 h of incubation, the cells were treated with 0.5 μL of various concentrations of compounds or a DMSO solvent control. Following 24 h of incubation, cells were treated with 3-(4,5-dimethylthiazol-2-yl)-2,5-diphenyltetrazolium bromide according to the manufacturer’s instructions (Promega, Madison, WI, USA). The experiments were performed as technical triplicates.

[29] = tested on: HEK293 cells; experiment: MTT cell viability assay; assay type: cell-based; conditions: 24 h exposure, 100 μM
Protocol: as §2

ADRB2, sequence (P07550 whole entry, the tested form may be a part): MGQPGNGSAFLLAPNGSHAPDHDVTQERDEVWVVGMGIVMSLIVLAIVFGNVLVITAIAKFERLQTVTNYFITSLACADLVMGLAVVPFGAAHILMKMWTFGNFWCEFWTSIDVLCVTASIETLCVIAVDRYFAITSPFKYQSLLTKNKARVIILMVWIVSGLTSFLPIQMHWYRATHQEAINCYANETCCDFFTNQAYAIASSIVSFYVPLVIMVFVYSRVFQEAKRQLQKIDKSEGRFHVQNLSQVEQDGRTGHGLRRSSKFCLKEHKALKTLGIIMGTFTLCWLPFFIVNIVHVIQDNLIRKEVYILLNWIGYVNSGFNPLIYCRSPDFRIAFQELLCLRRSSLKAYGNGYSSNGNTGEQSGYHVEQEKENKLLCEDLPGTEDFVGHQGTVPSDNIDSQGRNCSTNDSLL

Compound `CC(=O)N[C@@H](CCCC#C/C=C/Cl)CCCCCCC(Cl)Cl` [Compound 4, taveuniamide F] has an inhibition at 20 µM [1] of 25.3%, an inhibition at 20 µM [2] of 14.4% and an inhibition at 20 µM [3] of 31.2%. It also gave an inhibition at 20 µM [4] of 19.3%, an inhibition at 20 µM [5] of 19.2% and an inhibition at 20 µM [6] of 21.8%. For the same compound, the inhibition at 20 µM [7] was 31.6%, the inhibition at 20 µM [8] was 21.4% and the inhibition at 20 µM [9] was 15.3%. It also gave an inhibition at 20 µM [10] of 4.6%, an inhibition at 20 µM [11] of 43.8% and an inhibition at 20 µM [12] of 11.7%. For the same compound, the inhibition at 20 µM [13] was 59.9%, the inhibition at 20 µM [14] was 5.5% and the inhibition at 20 µM [15] was 36.1%. The inhibition at 20 µM [16] was 6.2%, the inhibition at 20 µM [17] was 41.7% and the inhibition at 20 µM [18] was 49.1%. For the same compound, the inhibition at 20 µM [19] was 20.1%, the inhibition at 20 µM [20] was 18.1% and the inhibition at 20 µM [21] was 5.5%. For the same compound, the inhibition at 20 µM [22] was 37.6%, the inhibition at 20 µM [23] was 36.5% and the inhibition at 20 µM [24] was 43.1%. It also gave an inhibition at 20 µM [25] of 2.4%, an inhibition at 20 µM [26] of 4.6% and an IC50 [27] of 37.7 µM. The Ki [27] was 34 µM, the viability at 24 h [28] was 100% and the “reduction in cell viability” value [29] was 56%.
